This passage reports GI50 and TGI results from PubChem BioAssay (NCI).

Holding throughout (assay): NCI tumour cell line growth inhibition, 48 h
In assay [1] the test system is ACHN renal.
In assay [2] the test system is HCT-116 colon.
Assay [3] deals with HL-60(TB) leukemia.
In assay [4] the test system is K-562 leukemia.
The test system of assay [5] is LOX IMVI melanoma.
Assay [6] deals with OVCAR-3 ovarian.
Assay [7] concerns SK-MEL-2 melanoma.
Assay [8] concerns SK-MEL-5 melanoma.
Assay [9] relates to SK-OV-3 ovarian.
Assay [10] deals with U251 CNS.

The structures appear in SMILES notation. Values joined by “and” are separate entries in the source; they are usually repeats but may differ in a detail not shown here. Equal values may be shown once.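 Compound exposure: 48 hours, 5 concentrations, 96-well plates. The concentration for 50% growth inhibition is given as GI50. At the TGI there is no net growth.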 A value given as a limit tells only on which side of the number the result lay.

As to `CCC1CCc2nc3sc(C(=O)Nc4ccccc4F)c(N)c3cc2C1` (configuration not stated), the GI50 in [1] was > 100 µM; in assay [2], 1.36 µM; in assay [3], 0.302 µM; in assay [4], 0.402 µM; in [5], 7.66 µM; in assay [6], 0.454 µM. The GI50 was 10.5 µM in assay [7], 0.656 µM in assay [8], > 100 µM in assay [9] and > 100 µM in assay [10]. Besides, the TGI in [1] is > 100 µM; in [2], > 100 µM; in [3] it was 0.978 µM; in assay [4], > 100 µM; in [5] it was > 100 µM; in [6] it was 8.98 µM. Further, the TGI in [7], in assay [8], in [9] and in assay [10] was > 100 µM throughout.
For `N=c1nc(N)c2cc3c(N)nc(=N)c3cc12`, the TGI is > 100 µM in [1]; 34.4 µM in [2]; 6.78 µM in [3]; 9.57 µM in [4]; > 52.2 µM in assay [5]; 75.2 µM in assay [6]. Besides, the TGI is > 46.5 µM in assay [7], > 100 µM in assay [8], 72.5 µM in assay [9] and 43.5 µM in [10].
Consider `CCCCCCN(CCCCCC)C(=N)c1ccnc2ccccc12`, for which the GI50 was 4.23 µM in assay [1]; 1.94 µM in assay [2]; 2.93 µM in [3]; 2.37 µM in [4]; 2.17 µM in assay [5]; 10.3 µM in [6]. Moreover, the GI50 in assay [7] was 3.66 µM; in assay [8], 1.96 µM; in [9], 12.3 µM; in assay [10], 3.31 µM. In addition, the TGI in assay [1] is 16.3 µM; in assay [2], 14.1 µM; in assay [3] it was 16.8 µM; in [4], 8.35 µM; in [5], 6.33 µM; in assay [6], 22.4 µM. The TGI in assay [7] is 12.2 µM; in [8] it was 3.45 µM; in assay [9], 24.7 µM; in assay [10], 10.9 µM.
In the case of `Cc1cc(N(CCOS(C)(=O)=O)CCOS(C)(=O)=O)ccc1C=Nc1ccc(-c2csc(-c3ccccc3)n2)c(Cl)c1`, the TGI in assay [1] was determined as 22.2 µM; in assay [2], 40.5 µM; in assay [3], 19.8 µM; in [4] it was 51 µM; in assay [5], 28.3 µM; in [6] it was 40.9 µM. Further, the TGI is 50.5 µM in assay [7], 16.2 µM in [8], 31.6 µM in assay [9] and > 64.8 µM in assay [10].
Regarding `O=C(O)C(=O)Cc1ccc2c(c1)OCO2`, the TGI in assay [1], in assay [2], in assay [3], in assay [4], in [5] and in assay [6] was > 100 µM throughout. Moreover, the TGI in assay [7], in [8], in [9] and in assay [10] was > 100 µM each time.
As for `COc1ccc(OC)c(/C=C/c2nnc(Nc3ccc(Cl)cc3)o2)c1`, the GI50 in assay [1] is 3.29 µM; in assay [2], 2.97 µM; in assay [3] it was > 100 µM; in [4], 92.8 µM; in [5] it was 7.91 µM; in assay [6], 3.55 µM. The GI50 is 9.66 µM in assay [7], 7.17 µM in assay [8], 2.79 µM in [9] and 3.81 µM in [10]. Also, the TGI in assay [1] is 19.9 µM; in assay [2] it was 13.1 µM; in assay [3], > 100 µM; in assay [4], > 100 µM; in assay [5], > 100 µM; in [6], 15.9 µM. Also, the TGI in [7] is > 100 µM; in [8], > 100 µM; in assay [9], 7.85 µM; in assay [10], 14.3 µM.
Consider `COc1cc2c(c(OC)c1OC)-c1ccc([O-])c(=O)cc1[C@@H](NC(C)=O)CC2.COc1cc2c(c(OC)c1OC)-c1ccc([O-])c(=O)cc1[C@@H](NC(C)=O)CC2.[Cu+2]`, for which the GI50 in assay [1] is 7.83 µM; in assay [2] it was 3.2 µM; in assay [3], 2.05 µM; in assay [4] it was 2.48 µM; in assay [5], 4.3 µM; in assay [6], 2.16 µM. The GI50 in [7] was 3.59 µM; in assay [8] it was 2.94 µM; in [9], 2.95 µM; in assay [10], 3.48 µM. In addition, the TGI in [1] is > 100 µM; in [2], > 100 µM; in assay [3] it was 4.82 µM; in [4], > 100 µM; in [5] it was > 100 µM; in assay [6], 5.19 µM. The TGI in [7] is > 100 µM; in [8] it was 12 µM; in assay [9] it was > 100 µM; in assay [10] it was > 100 µM.
For the molecule `C=C(C)C(=O)NC(N)=NC#N`, the GI50 in assay [1] is 68 µM; in assay [2], 131 µM; in [5] it was 28.6 µM; in [6], 129 µM; in assay [7], 134 µM; in [8], 171 µM. The GI50 in assay [10] was 131 µM. The TGI is 271 µM in [1]; 257 µM in assay [2]; 42.6 µM and 50.3 µM in assay [3]; 51.5 µM and 58.5 µM in assay [4]; 96 µM in assay [5]; 259 µM in assay [6]. The TGI in [7] is 261 µM; in [8] it was 310 µM; in [9] it was 308 µM; in assay [10], 260 µM.
For the molecule `CC[C@H](C)c1occ2c(O)c(C(=O)O)c(=O)cc-2c1C`, the TGI was 65.4 µM in assay [1]; 41.5 µM in [2]; 41.7 µM in [3]; > 100 µM in assay [4]; 32.8 µM in [5]; 42.4 µM in [6]. For the same molecule, the TGI in assay [7] was determined as 34 µM; in assay [8], 38.1 µM; in [9], 63.7 µM; in assay [10] it was 74.6 µM.
